The test system of assay [1] is DNBS, TNBS, or DSS induced colitis. To be noted: administration of selective TRPA1 inhibitor; background; cited from earlier work.
Assay [2] concerns acute gastric mucosal injury. To be noted: background; cited from earlier work.
The target in the next assay is T1, chemokine receptor CCR9 (Homo sapiens, UniProt P51686).
T1 construct: expressed in transfected cells
T1 sequence (P51686 1-369): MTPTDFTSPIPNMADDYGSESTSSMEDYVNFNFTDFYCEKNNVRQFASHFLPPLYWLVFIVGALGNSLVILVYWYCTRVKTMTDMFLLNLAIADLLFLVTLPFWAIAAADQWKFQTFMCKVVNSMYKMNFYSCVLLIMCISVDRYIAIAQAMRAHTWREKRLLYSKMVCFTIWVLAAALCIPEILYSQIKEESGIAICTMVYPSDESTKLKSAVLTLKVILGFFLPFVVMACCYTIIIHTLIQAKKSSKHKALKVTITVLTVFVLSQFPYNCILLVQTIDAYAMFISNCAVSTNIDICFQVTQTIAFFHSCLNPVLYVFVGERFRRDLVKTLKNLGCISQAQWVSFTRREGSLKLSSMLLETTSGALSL
Briefly: CCR9 antagonistic activity, calcium flow (Fluo-4, FlexStation), CCL25 agonist. In kind it is cell-based. Particulars: antagonistic mode, CCL25 150 nM. From the text:
2.1 Main reagents: DMEM culture medium (GIBCO); dimethyl sulfoxide (Sigma); FLUO-4, AM (Invitrogen) 2.2 Main instrument: Flexstation-3 (Molecular Devices) The test concentration gradient of the compound and replicates were set according to the requirement of testing ICSO. All test substances with 8 concentrations were set, with 3 replicates for each concentration. By establishing a cell line that cotransformed the receptor and G16, the receptor being activated can induce the activation of Gα16 protein, thereby activating phospholipase C (PLC) to produce IP3 and DAG. IP3 can bind to the IP3 receptor on the intracellular endoplasmic reticulum and mitochondria, leading to the release of intracellular calcium. Therefore, measuring changes in intracellular calcium can serve as a method for detecting the activation status of target receptor. Fluo-4/AM is a calcium fluorescent probe indicator used to measure calcium ion, as a non-polar lipophilic compound, under the action of cell lipase after entering cells, the AM group dissociates and releases Fluo-4; since Fluo-4 is a polar molecule, it is not easy to pass through lipid bilayers, allowing it to remain in the cell for a long time. Ultimately, the level of G protein activation can be reflected by measuring the excited fluorescence intensity. […] Cells stably expressing the target receptor/Ga16 were planted on a 96 well plate and cultured overnight. 2. The culture solution was removed from the well planted cells, then 40 μL/well of freshly prepared dye was added. The mixture was incubated at a constant temperature in a 37° C. incubator for 40 minutes. 3. The drug to be tested was diluted with calcium buffer and mixed well. 4. The dye was absorbed and discarded. After washed once with freshly prepared calcium buffer, 50 μL of calcium buffer that dissolved the drug to be tested was added for replacement. 5. The FlexStation II instrument was used for detection. Starting from the 15th second, […] dissolved with known agonist was automatically added by the instrument, and finally the fluorescence value at 525 nm was readed. The following formula was used to calculate the cell response rate (% Response) for each sample under each concentration. […] IC50 value was calculated using GraphPad Prism.

The target in a further assay is T2, mTRPA1 (Mus musculus, UniProt Q8BLA8).
T2 construct: expressed in transfected cells
The assay is described as follows: IonWorks Barracuda (IWB) automated patch clamp, TRPA1 inhibitory activity. To be noted: HEK293 cells stably expressing mTRPA1, current induced by AITC, amplitude at +100 mV; read-out: IC50 (inhibition activity on TRPA1). Type of assay: cell-based. The method, boiled down:
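HEK293 cells stably expressing mouse TRPA1, perforated-patch whole-cell recording (amphotericin B) on IonWorks Barracuda; holding 0 mV, −100 to +100 mV ramp over 300 ms every 10 s. Current evoked by 300 µM AITC, leak-subtracted, amplitude taken at +100 mV; IC50 from fitted dose-effect curves, HC030031 as plate reference.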

Assay [3] relates to DNBS induced colitis in Wistar rats. Briefly: DNBS induced colitis model in Wistar rats. In kind it is in vivo, rat. More on the design: Degree of adhesion (score) / Degree of intestinal infarction (score) / Severity of ulcer (score) / Degree of intestinal wall thickening (score) / Macroscopic colon score: scale not given here. To be noted: oral once a day Day 0 to Day 6, compounds 10 mg/kg, osalazine sodium 300 mg/kg. From the text:
The therapeutic effect of compounds prepared in some examples of the present invention on 2,4-dinitrobenzenesulfonic acid (DNBS) induced ulcerative colitis in Wistar rats (corresponding to Crohn's disease) was investigated.
• Animal species and strains: Wistar rats • Administration record: No administration history • Gender and weight: Male, about 150 g • Breeding party/supplier: Shanghai SLAC Laboratory Animal Co., Ltd • Adaptation period: 5 days • Room: Regular Area Rooms • Indoor temperature: 20-26° C. • Indoor relative humidity: 40-70% • Lighting: Fluorescent lighting, 12-hour illumination (08:00-20:00) and 12-hour no illumination • Animal feeding: 2-4 rats per cage (same administration group) • Food: Unlimited access to feed (disinfected by irradiation, Jiangsu Xietong Pharmaceutical Bio-engineering Co., Ltd., China) • Water: Unlimited access to drinking water (treated with reverse osmosis and high-pressure sterilization)
A total of 80 Wistar rats were purchased from Shanghai SLAC Laboratory Animal Co., Ltd, of which 10 were used as backup animals to select animals with suitable weight range included in the groups, in order to control the fluctuation of disease severity caused by weight fluctuations.
BioBook software was used to screen 70 animals for random grouping based on animal weight to ensure that the weight values of each group of animals were similar to reduce bias.
3.1 DNBS powder was dissolved in 30% ethanol with a final concentration of 60 mg/mL.
3.2 Induction of colorectal inflammation: Before the experiment, rats were fasted for 40 hours and subcutaneously injected with 5% glucose saline during the fasting period. On the day 0 of the experiment, fasting rats were anesthetized by intraperitoneal injection of Zoletil and 5 mg/kg Xylazine. G2 group-G7 group, a hose was extended from the anus to the left curvature of the colorectum, and colorectal inflammation in rats was induced with DNBS enema. The normal control group (G1) was treated with 30% ethanol enema using the same method.
3.3. Dosage regimen: After DNBS induction in G1 and G2 groups of animals, solvent was administered. After DNBS induction in G3 group, 300 mg/kg of oxalazine sodium was administered. After DNBS induction in G4 to G7 groups, 10 mg/kg of the compounds of the present invention were administered respectively. Please refer to Table 3 for the administration time, specific administration dosage, and administration route. Starting from day 0 of modeling, the drugs were administered continuously for 7 days, and the animals were euthanized on day 6.
3.4 Testing indicators: After the experiment, all animals were euthanized by inhaling excessive CO2 and dislocation of cervical vertebra. After the abdominal cavity was cut open, the colorectum was taken out and the length of it was immediately measured. Then the colorectum was longitudinally cut open and rinsed clean. The weight of the colorectum and the area of the ulcer were recorded and the whole was photographed. At the same time, the damage to the rat colorectum was evaluated macroscopically according to Table 4.
The health status of animals and their comprehensive response to surgery and medication were observed every day.
The experimental data was calculated as mean±standard error. Statistical analysis was performed using Graphpad Prism, SPSS, or Sigmaplot software. The specific data is presented in the form of charts. P<0.05 is considered to have statistical differences.

We go through four compounds from patent publication US20240262812A1, “N-SUBSTITUTED PHENYLSULFONAMIDE COMPOUND AND USE THEREOF” (Shanghai Leado Pharmatech Co., Ltd., priority 2021, published 2024).

T2 sequence (Q8BLA8 whole entry): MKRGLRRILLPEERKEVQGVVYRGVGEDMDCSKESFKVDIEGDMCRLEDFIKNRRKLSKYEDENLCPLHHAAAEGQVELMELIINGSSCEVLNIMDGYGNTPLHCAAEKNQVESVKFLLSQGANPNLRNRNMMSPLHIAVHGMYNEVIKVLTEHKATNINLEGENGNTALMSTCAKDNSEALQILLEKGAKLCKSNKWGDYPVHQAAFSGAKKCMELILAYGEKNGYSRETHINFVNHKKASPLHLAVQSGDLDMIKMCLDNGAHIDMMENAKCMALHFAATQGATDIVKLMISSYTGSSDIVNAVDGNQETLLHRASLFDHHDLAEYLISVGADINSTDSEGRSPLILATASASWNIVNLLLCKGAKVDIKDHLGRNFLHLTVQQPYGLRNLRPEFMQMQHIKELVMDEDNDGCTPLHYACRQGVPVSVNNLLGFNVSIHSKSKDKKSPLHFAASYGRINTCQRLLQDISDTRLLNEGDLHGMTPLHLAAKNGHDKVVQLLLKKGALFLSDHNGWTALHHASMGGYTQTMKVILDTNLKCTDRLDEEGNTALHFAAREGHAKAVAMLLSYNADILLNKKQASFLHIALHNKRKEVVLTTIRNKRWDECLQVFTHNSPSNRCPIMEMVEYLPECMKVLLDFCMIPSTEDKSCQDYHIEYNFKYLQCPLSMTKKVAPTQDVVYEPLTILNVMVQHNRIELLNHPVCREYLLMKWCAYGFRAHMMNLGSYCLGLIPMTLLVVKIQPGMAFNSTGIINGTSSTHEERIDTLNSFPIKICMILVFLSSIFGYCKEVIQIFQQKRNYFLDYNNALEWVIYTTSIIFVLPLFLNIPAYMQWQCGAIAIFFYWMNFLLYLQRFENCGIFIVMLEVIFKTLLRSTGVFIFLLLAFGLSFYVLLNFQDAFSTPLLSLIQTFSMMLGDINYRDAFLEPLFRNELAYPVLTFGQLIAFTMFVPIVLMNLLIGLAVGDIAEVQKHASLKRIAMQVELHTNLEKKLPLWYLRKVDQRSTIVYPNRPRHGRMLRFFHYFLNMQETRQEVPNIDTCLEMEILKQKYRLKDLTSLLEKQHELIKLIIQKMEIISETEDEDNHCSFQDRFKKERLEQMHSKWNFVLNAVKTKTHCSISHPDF

Take `CC(C)c1ccc(NC(=O)Cn2cnc3c2c(=O)n(C)c(=O)n3C)cc1` [HC-030031, HC030031]: the “symptom of colitis in animals” value in assay [1] is on record as “significantly alleviated the symptom of colitis in animals”. In addition, the “result in rat model of acute gastric mucosal injury” value in assay [2] is “showed positive result”.
Consider `NCCc1ccc(NS(=O)(=O)c2ccsc2)c(-c2ccco2)c1` [IR, N-(4-(2-aminoethyl)-2-(furan-2-yl)phenyl)thiophene-3-sulfonamide], for which the inhibition at 100 µM on chemokine receptor CCR9 (100 μM, read-out: Inhibition rate (%) (100 μM)) amounted to 25%. Besides, the values for the IC50 at chemokine receptor CCR9 and on mTRPA1 were greater than 100 µM and 1 to 5 µM, respectively.
As for `O=C([O-])c1cc(/N=N/c2ccc(O)c(C(=O)[O-])c2)ccc1O.[Na+].[Na+]` [osalazine sodium, reference compound], in assay [3] (mean score per Table 4), the “Degree of adhesion (score)” value came to 0.00, the “Degree of intestinal infarction (score)” value is listed as 0.00, the “Degree of intestinal wall thickening (score)” value is 0.40 and the “Severity of ulcer (score)” value came out at 1.50. Moreover, in assay [3] (mean total score), the Macroscopic colon score is 1.90. In assay [3] (mean), this compound returned a Colon length of 14.33 cm, a Colon weight of 1.41 g, a Ulcer area of 0.30 cm^2 and a Ulcer length of 0.71 cm. Also, the Ulcer width in assay [3] (mean) was found to be 0.34 cm.
For the compound `O=C([O-])c1cc(/N=N/c2ccc(O)c(C(=O)[O-])c2)ccc1O.[Na+].[Na+]` [oxalazine sodium, reference compound], in assay [3] (mean), the Colon weight entry is “significantly reduce” and the Ulcer area entry is “significantly reduce”.

By inhibition is commonly meant the change of the read-out against control, counted positive when it falls. What is called IC50 is the concentration that inhibits the measured activity by half.
